The values below come from the NIST ThermoML archive (doi:10.1016/j.jct.2012.08.030).

For orientation: speed of sound means how fast a sound wave travels through the sample. As usually defined, the mass density is mass per unit of volume. As usually defined, the refractive index is a measure of how strongly the sample bends light.

SMILES strings stand for the structures. Numbers after ± are expanded uncertainties.

Assay in one series: not given
Conditions: 298.15 K; 101.3 kPa; Liquid; Sing-around technique in a fixed-path interferometer.
On to `CCCCn1cc[n+](C)c1.COS(=O)(=O)[O-]` [1-butyl-3-methylimidazolium methyl sulfate], for which the speed of sound worked out at 1654.6 ± 3.1 m/s.
As for `CCCCO` [butan-1-ol], the speed of sound amounted to 1239.3 ± 1.2 m/s.
Same read-out and setting: the same measure for `CO` [methanol]: 1104.3 ± 0.59 m/s; for `CCCO` [propan-1-ol]: 1205.9 ± 0.8 m/s; for `CC(C)O` [propan-2-ol]: 1138.7 ± 0.78 m/s.

The same series, now with this note: 298.15 K; 101.3 kPa; Liquid; Vibrating tube method.
As for `CCCCn1cc[n+](C)c1.COS(=O)(=O)[O-]` [1-butyl-3-methylimidazolium methyl sulfate], the mass density is 1212.06 ± 2.8 kg/m3.
The same measure, in the same setting: the same measure for `CCCCO` [butan-1-ol]: 805.93 ± 0.24 kg/m3; for `CO` [methanol]: 787.405 ± 0.12 kg/m3.
Same read-out and setting: with `CCCO` [propan-1-ol] the figure was 800.008 ± 0.14 kg/m3.
Take `CC(C)O` [propan-2-ol]: the mass density stood at 781.123 ± 0.15 kg/m3.

Still in this series, the particulars now being: 303.15 K; 101.3 kPa; Liquid; Sing-around technique in a fixed-path interferometer.
For the compound `CCCCn1cc[n+](C)c1.COS(=O)(=O)[O-]` [1-butyl-3-methylimidazolium methyl sulfate], the speed of sound is 1642.2 ± 3.1 m/s.
As for `CCCCO` [butan-1-ol], the speed of sound came out at 1222.9 ± 1.2 m/s.
Same read-out and setting: with `CO` [methanol] the figure was 1088.3 ± 0.59 m/s.
With `CCCO` [propan-1-ol], the speed of sound is 1189.3 ± 0.8 m/s.
In the case of `CC(C)O` [propan-2-ol], the speed of sound stood at 1121.4 ± 0.78 m/s.

Still in this series, the particulars now being: 303.15 K; 101.3 kPa; Liquid; Vibrating tube method.
As for `CCCCn1cc[n+](C)c1.COS(=O)(=O)[O-]` [1-butyl-3-methylimidazolium methyl sulfate], the mass density turned out to be 1208.7 ± 2.8 kg/m3.
As to `CCCCO` [butan-1-ol], the mass density is 802.088 ± 0.24 kg/m3.
Still for that read-out and setting: with `CO` [methanol] the figure was 782.688 ± 0.12 kg/m3.
For `CCCO` [propan-1-ol], the mass density was determined as 795.97 ± 0.14 kg/m3.
On the same count and under the same terms, with `CC(C)O` [propan-2-ol] the figure was 776.845 ± 0.15 kg/m3.

Staying with this series, now noted: 308.15 K; 101.3 kPa; Liquid; Sing-around technique in a fixed-path interferometer.
As for `CCCCn1cc[n+](C)c1.COS(=O)(=O)[O-]` [1-butyl-3-methylimidazolium methyl sulfate], the speed of sound came out at 1630 ± 3.1 m/s.
For the compound `CCCCO` [butan-1-ol], the speed of sound is 1206.3 ± 1.2 m/s.
`CO` [methanol]: the speed of sound came to 1072 ± 0.58 m/s.
With `CCCO` [propan-1-ol], the speed of sound turned out to be 1172.4 ± 0.79 m/s.
Take `CC(C)O` [propan-2-ol]: the speed of sound amounted to 1103.9 ± 0.77 m/s.

Still in this series, the particulars now being: 308.15 K; 101.3 kPa; Liquid; Vibrating tube method.
For `CCCCn1cc[n+](C)c1.COS(=O)(=O)[O-]` [1-butyl-3-methylimidazolium methyl sulfate], the mass density stood at 1205.35 ± 2.8 kg/m3.
`CCCCO` [butan-1-ol]: the mass density amounted to 798.214 ± 0.24 kg/m3.
Take `CO` [methanol]: the mass density is given as 777.941 ± 0.12 kg/m3.
For the compound `CCCO` [propan-1-ol], the mass density stood at 791.892 ± 0.14 kg/m3.
For the compound `CC(C)O` [propan-2-ol], the mass density was 772.487 ± 0.15 kg/m3.

Staying with this series, now noted: 313.15 K; 101.3 kPa; Liquid; Sing-around technique in a fixed-path interferometer.
For `CCCCn1cc[n+](C)c1.COS(=O)(=O)[O-]` [1-butyl-3-methylimidazolium methyl sulfate], the speed of sound worked out at 1617.9 ± 3.1 m/s.
With `CCCCO` [butan-1-ol], the speed of sound is listed as 1189.7 ± 1.2 m/s.
As for `CO` [methanol], the speed of sound was determined as 1055.9 ± 0.58 m/s.
As to `CCCO` [propan-1-ol], the speed of sound is listed as 1155.5 ± 0.79 m/s.
The same measure, in the same setting: the same measure for `CC(C)O` [propan-2-ol]: 1086.6 ± 0.77 m/s.

Still in this series, the particulars now being: 313.15 K; 101.3 kPa; Liquid; Vibrating tube method.
In the case of `CCCCn1cc[n+](C)c1.COS(=O)(=O)[O-]` [1-butyl-3-methylimidazolium methyl sulfate], the mass density was determined as 1202.01 ± 2.8 kg/m3.
`CCCCO` [butan-1-ol]: the mass density turned out to be 794.301 ± 0.24 kg/m3.
Take `CO` [methanol]: the mass density came out at 773.168 ± 0.12 kg/m3.
`CCCO` [propan-1-ol]: the mass density was found to be 787.772 ± 0.14 kg/m3.
With `CC(C)O` [propan-2-ol], the mass density is 768.053 ± 0.15 kg/m3.

The nature of another series: refractive index (Na D-line) (dimensionless). The following applies: 298.15 K; 101.33 kPa; Liquid; Standard Abbe refractometry.
In the case of `CCCCn1cc[n+](C)c1.COS(=O)(=O)[O-]` [1-butyl-3-methylimidazolium methyl sulfate], the refractive index worked out at 1.47824 ± 0.00068.
On the same count and under the same terms, the same measure for `CCCCO` [butan-1-ol]: 1.39747 ± 0.00037; for `CO` [methanol]: 1.3272 ± 0.00031; for `CCCO` [propan-1-ol]: 1.38334 ± 0.00033.
Turning to `CC(C)O` [propan-2-ol], the refractive index is recorded as 1.37527 ± 0.00033.

The same series, now with this note: 303.15 K; 101.33 kPa; Liquid; Standard Abbe refractometry.
Turning to `CCCCn1cc[n+](C)c1.COS(=O)(=O)[O-]` [1-butyl-3-methylimidazolium methyl sulfate], the refractive index came out at 1.47704 ± 0.00068.
As to `CCCCO` [butan-1-ol], the refractive index turned out to be 1.39549 ± 0.00037.
For `CO` [methanol], the refractive index was 1.32552 ± 0.00031.
Consider `CCCO` [propan-1-ol], for which the refractive index worked out at 1.38131 ± 0.00033.
On to `CC(C)O` [propan-2-ol], for which the refractive index was found to be 1.37314 ± 0.00033.

The same series, now with this note: 308.15 K; 101.33 kPa; Liquid; Standard Abbe refractometry.
As to `CCCCn1cc[n+](C)c1.COS(=O)(=O)[O-]` [1-butyl-3-methylimidazolium methyl sulfate], the refractive index turned out to be 1.47577 ± 0.00068.
In the case of `CCCCO` [butan-1-ol], the refractive index is given as 1.39342 ± 0.00037.
The same measure, in the same setting: with `CO` [methanol] the figure was 1.32362 ± 0.00031; with `CCCO` [propan-1-ol], 1.37926 ± 0.00033.
